Assay results taken from article PMC5319852 (Biochemistry, 2016).

Target: Plasmodium vivax geranylgeranyl diphosphate synthase (PvGGPPS) (Plasmodium vivax, UniProt A5K4U6)
Experiment: X-ray co-crystal structure
Format: biochemical

SMILES: CCCCCCCCCCOc1cccc(COc2ccc([N+](=O)[O-])cc2C(=O)O)c1 [BPH-1186]
- IC50: 50 µM
